Where a name gives a salt, the structure may show the parent alone.
molecular target: T1, tankyrase 1 (Homo sapiens, UniProt O95271); experiment: Analysis of activity of tankyrase 1 (Trevigen kit, ELISA absorbance at 450 nm); type: biochemical; settings: not given
T1 construct: purchased Trevigen 4700-096-K
T1 sequence (O95271 1-1327): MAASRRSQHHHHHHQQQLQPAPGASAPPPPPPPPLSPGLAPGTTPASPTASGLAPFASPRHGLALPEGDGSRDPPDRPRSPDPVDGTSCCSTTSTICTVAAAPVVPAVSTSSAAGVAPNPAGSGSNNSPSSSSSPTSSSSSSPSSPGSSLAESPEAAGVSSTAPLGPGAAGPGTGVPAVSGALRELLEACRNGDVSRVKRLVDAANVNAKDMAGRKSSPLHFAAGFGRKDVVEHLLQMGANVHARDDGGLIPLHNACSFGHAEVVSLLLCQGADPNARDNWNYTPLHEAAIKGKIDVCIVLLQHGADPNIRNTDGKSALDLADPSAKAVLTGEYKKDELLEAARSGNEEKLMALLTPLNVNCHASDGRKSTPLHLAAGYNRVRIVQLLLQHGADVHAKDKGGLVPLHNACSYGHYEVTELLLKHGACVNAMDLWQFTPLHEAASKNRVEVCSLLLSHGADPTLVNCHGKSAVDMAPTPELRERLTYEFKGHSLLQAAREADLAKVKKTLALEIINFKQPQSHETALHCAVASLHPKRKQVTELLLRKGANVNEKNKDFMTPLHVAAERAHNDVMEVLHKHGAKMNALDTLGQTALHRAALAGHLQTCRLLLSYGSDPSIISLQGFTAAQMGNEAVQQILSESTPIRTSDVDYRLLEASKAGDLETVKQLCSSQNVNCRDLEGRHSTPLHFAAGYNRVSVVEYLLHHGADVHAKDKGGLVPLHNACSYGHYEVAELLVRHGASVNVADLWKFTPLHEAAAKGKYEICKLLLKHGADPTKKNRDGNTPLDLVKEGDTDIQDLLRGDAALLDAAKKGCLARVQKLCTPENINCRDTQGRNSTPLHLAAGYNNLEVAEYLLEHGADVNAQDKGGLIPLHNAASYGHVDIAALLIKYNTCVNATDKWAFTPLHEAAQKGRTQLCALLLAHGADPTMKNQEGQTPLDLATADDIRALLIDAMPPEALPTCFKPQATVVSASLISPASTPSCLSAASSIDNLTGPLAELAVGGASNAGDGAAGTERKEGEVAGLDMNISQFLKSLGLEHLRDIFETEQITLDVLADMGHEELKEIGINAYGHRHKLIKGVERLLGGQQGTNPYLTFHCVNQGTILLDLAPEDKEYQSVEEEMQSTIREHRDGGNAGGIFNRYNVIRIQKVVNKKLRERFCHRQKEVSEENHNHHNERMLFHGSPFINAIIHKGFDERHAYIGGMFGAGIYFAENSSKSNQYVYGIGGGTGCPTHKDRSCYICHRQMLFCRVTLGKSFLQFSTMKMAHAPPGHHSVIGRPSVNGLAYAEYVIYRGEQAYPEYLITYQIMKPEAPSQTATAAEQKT
Experimental: Activities of novel compounds synthesized according to Examples 1 to 72 against tankyrase 1 were analyzed using a Trevigen kit (Cat. No. 4700-096-K). Poly PAR histone protein-coated 96-well plate, anti-PAR monoclonal antibody and goat anti-mouse IgG-HRP were used for measurement of absorbance by ELISA method. Specifically, 20× I-PAR assay buffer was diluted to 1× by adding water, and 50 μL of the diluted buffer was added to each well of the 96-well plate followed by reacting at rt for 30 min. Then, the supernatant was completely removed from each well and 10 μL of 1× I-PAR assay buffer and 15 μL of assay substrate were added to each well along with 1 μL of a 50× solution of inhibitors to be tested, which were the compounds obtained in the Examples 1 to 72. 10 mUnits/μL of tankyrase 1 enzyme was diluted 50-fold with 1× I-PAR assay buffer and 25 μL of the diluted enzyme was added to each well and reacted while stirring at rt for 30 min. One without any compound of the present invention was used as a positive control and another containing 1× I-PAR assay buffer with the same volume instead of tankyrase 1 enzyme was used as a negative control. Upon completion of the reaction, 200 μL of PBSX, which was prepared by adding 0.1% triton X-100 to PBS, was added and removed and this washing process was repeated twice. Washing was repeated twice more using PBS in the same manner. 5× antibody diluent was diluted with distilled water to 1× concentration, 50 μL of the diluted goat anti-mouse IgG-HRP to 1/2000 was added to each well and reacted while stirring at rt for 30 min. Washes were carried out twice using PBSX and PBS, respectively. After adding 50 μL of TACS-sapphire to each well of the plate, the plate was blocked from light to react for 10 min to 15 min and the color of the reaction solution turned blue. To stop the reaction, 50 μL of 0.2N HCl was added to turn the solution yellow. Finally, the absorbance of the resulting solution was measured at 450 nm.

| IC50 | SMILES |
| --- | --- |
| 60.9 nM | CC(C)Oc1cc(F)c(N2CCN(c3nc4c(nnn4C)c(=O)[nH]3)CC2)c(F)c1 [compound 9, 5-(4-(2,6-Difluoro-4-isopropoxyphenyl)piperazin-1-yl)-3-methyl-3H-[1,2,3]triazolo[4,5-d]pyrimidin-7(6H)-one] |
| 22.7 nM | COCCOc1cc(F)c(N2CCN(c3cc4c(nnn4C)c(=O)[nH]3)CC2)c(F)c1 [compound 53, 6-(4-(2,6-Difluoro-4-(2-methoxyethoxy)phenyl)piperazin-1-yl)-1-methyl-1H[1,2,3]triazolo[4,5-c]pyridin-4(5H)-one] |

same assay, conditions: tankyrase 1 enzyme, Trevigen kit Cat. No. 4700-096-K, 30 min at rt; read-out: TNKS1 (IC50)

| SMILES | IC50 |
| --- | --- |
| COCCOc1cc(F)c(C2(O)CCN(c3nc4c(nnn4C)c(=O)[nH]3)CC2)c(F)c1 [compound 25, 5-(4-(2,6-Difluoro-4-(2-methoxyethoxy)phenyl)-4-hydroxypiperidin-1-yl)-3-methyl-3H-[1,2,3]triazolo[4,5-d]pyrimidin-7(6H)-one] | 33.1 nM |
| Cn1nnc2c(=O)[nH]c(N3CCN(c4c(F)cc(OCCN5CCOCC5)cc4F)CC3)cc21 [compound 54, 6-(4-(2,6-Difluoro-4-(2-morpholinoethoxy)phenyl)piperazin-1-yl)-1-methyl-1H-[1,2,3]triazolo[4,5-c]pyridin-4(5H)-one] | 11 nM |
| Cn1nnc2c(=O)[nH]c(N3CCN(c4c(F)cc(OCCN5CCC(O)CC5)cc4F)CC3)nc21 [compound 42, 5-(4-(2,6-Difluoro-4-(2-(4-hydroxypiperidin-1-yl)ethoxy)phenyl)piperazin-1-yl)-3-methyl-3H-[1,2,3]triazolo[4,5-d]pyrimidin-7(6H)-one] | 51.4 nM |
| CC(O)c1cc(F)c(N2CCN(c3nc4c(nnn4C)c(=O)[nH]3)CC2)c(F)c1 (stereo not drawn) [compound 17, 5-(4-(2,6-Difluoro-4-(1-hydroxyethyl)phenyl)piperazin-1-yl)-3-methyl-3H-[1,2,3]triazolo[4,5-d]pyrimidin-7(6H)-one] | 17.6 nM |
| COCCN(C)Cc1cc(F)c(N2CCN(c3nc4c(nnn4C)c(=O)[nH]3)CC2)c(F)c1 [compound 20, 5-(4-(2,6-Difluoro-4-(((2-methoxyethyl)(methyl)amino)methyl)phenyl)piperazin-1-yl)-3-methyl-3H-[1,2,3]triazolo[4,5-d]pyrimidin-7(6H)-one] | 83.1 nM |
| Cn1nnc2c(=O)[nH]c(N3CCN(c4c(F)cc(OCCO)cc4F)CC3)nc21 [compound 7, 5-(4-(2,6-Difluoro-4-(2-hydroxyethoxy)phenyl)piperazin-1-yl)-3-methyl-3H-[1,2,3]triazolo[4,5-d]pyrimidin-7(6H)-one] | 44 nM |
| CN1CCN(CCOc2cc(F)c(N3CCN(c4nc5c(nnn5C)c(=O)[nH]4)CC3)c(F)c2)CC1 [compound 32, 5-(4-(2,6-Difluoro-4-(2-(4-methylpiperazin-1-yl)ethoxy)phenyl)piperazin-1-yl)-3-methyl-3H-[1,2,3]triazolo[4,5-d]pyrimidin-7(6H)-one] | 120 nM |

Second part, the compound after the results:

| IC50 | SMILES |
| --- | --- |
| 27.3 nM | CC(O)c1cc(F)c(N2CCN(c3cc4c(nnn4C)c(=O)[nH]3)CC2)c(F)c1 (stereo not drawn) [compound 63, 6-(4-(2,6-Difluoro-4-(1-hydroxyethyl)phenyl)piperazin-1-yl)-1-methyl-1H[1,2,3]triazolo[4,5-c]pyridin-4(5H)-one] |
| 13.4 nM | C[C@H](N)C(=O)OCCOc1cc(F)c(N2CCN(c3cc4c(nnn4C)c(=O)[nH]3)CC2)c(F)c1 [compound 58, (S)-2-(3,5-difluoro-4-(4-(1-methyl-4-oxo-4,5-dihydro-1H-[1,2,3]triazolo[4,5-c]pyridin-6-yl)piperazin-1-yl)phenoxy)ethyl2-aminopropanoate hydrochloride] |
| 27.5 nM | CN(C)CCOc1cc(F)c(N2CCN(c3cc4c(nnn4C)c(=O)[nH]3)CC2)c(F)c1 [compound 56, 6-(4-(4-(2-(Dimethylamino)ethoxy)-2,6-difluorophenyl)piperazin-1-yl)-1-methyl-1H-[1,2,3]triazolo[4,5-c]pyridin-4(5H)-one] |
| 18.6 nM | Cn1nnc2c(=O)[nH]c(N3CCN(c4c(F)cc(OCCN5CCCC5)cc4F)CC3)cc21 [compound 67, 6-(4-(2,6-Difluoro-4-(2-(pyrrolidin-1-yl)ethoxy)phenyl)piperazin-1-yl)-1-methyl-1H-[1,2,3]triazolo[4,5-c]pyridin-4(5H)-one] |
| 331 nM | Cn1nnc(C2CCN(c3cc4c(nnn4C)c(=O)[nH]3)CC2)n1 [compound 66, 1-Methyl-6-(4-(2-methyl-2H-tetrazol-5-yl)piperidin-1-yl)-1H-[1,2,3]triazolo[4,5-c]pyridin-4(5H)-one] |
| 24.9 nM | Cn1nnc2c(=O)[nH]c(N3CCN(c4c(F)cc(OCCN)cc4F)CC3)cc21 [compound 71, 6-(4-(4-(2-Aminoethoxy)-2,6-difluorophenyl)piperazin-1-yl)-1-methyl-1H-[1,2,3]triazolo[4,5-c]pyridin-4(5H)-one] |

Source: patent US9914737B2, “Triazolopyrimidinone or triazolopyridinone derivatives, and use thereof” (ST PHARM CO., LTD., priority 2014, dated 2018)
